In the Kinase Knowledgebase extract (Sharma et al. 2016):
Values after ≈ are worked out from the molar mass of the structure shown.

These molecules were tested against EGFR (UniProt P00533).
EGFR, sequence (P00533 whole entry, looked up): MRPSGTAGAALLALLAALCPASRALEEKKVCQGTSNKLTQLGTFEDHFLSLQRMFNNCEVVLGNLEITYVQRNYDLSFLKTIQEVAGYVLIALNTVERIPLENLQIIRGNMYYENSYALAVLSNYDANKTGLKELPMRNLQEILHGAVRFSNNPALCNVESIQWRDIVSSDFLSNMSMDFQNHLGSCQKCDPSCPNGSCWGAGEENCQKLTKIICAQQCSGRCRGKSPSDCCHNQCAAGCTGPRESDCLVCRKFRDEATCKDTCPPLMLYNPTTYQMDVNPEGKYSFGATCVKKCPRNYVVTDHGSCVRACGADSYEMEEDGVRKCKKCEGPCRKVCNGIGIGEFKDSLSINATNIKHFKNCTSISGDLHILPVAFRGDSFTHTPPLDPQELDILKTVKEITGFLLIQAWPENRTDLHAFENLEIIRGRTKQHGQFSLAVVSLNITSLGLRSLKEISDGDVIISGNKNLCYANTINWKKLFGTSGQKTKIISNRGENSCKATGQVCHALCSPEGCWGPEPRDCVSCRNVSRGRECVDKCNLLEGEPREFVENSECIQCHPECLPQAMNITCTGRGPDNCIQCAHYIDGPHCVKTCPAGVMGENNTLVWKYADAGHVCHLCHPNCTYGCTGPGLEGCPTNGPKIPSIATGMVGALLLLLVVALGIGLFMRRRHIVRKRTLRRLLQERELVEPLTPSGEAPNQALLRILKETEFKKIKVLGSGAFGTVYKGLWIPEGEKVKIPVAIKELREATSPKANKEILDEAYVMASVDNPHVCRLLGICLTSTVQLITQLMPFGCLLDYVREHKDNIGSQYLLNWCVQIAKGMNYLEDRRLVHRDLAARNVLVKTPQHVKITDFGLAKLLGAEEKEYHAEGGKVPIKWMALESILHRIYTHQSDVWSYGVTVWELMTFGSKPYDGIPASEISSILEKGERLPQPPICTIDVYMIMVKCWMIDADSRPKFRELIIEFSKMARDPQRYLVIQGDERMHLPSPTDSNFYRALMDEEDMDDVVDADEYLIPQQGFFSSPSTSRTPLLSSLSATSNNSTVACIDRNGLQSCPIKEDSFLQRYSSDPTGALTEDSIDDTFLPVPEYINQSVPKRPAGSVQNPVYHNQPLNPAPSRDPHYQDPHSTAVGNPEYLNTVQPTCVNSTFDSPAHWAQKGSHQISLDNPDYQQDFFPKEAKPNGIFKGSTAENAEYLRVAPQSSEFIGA

IC50 [µg/mL] | SMILES
> 4.5 | CN(c1cccc(Cl)c1)c1ncnc(Nc2ccc(Cl)c(Cl)c2)n1
> 4.5 | N#Cc1cccc(Nc2ncnc(-n3c(=O)[nH]c4ccccc43)n2)c1
> 4.5 | COc1cccc(Nc2ncnc(-c3ccccc3)n2)c1
< 0.4 | CN(c1cccc(Cl)c1)c1ncnc(Nc2ccc(F)c(Cl)c2)n1
< 0.4 | CN(c1cccc(Cl)c1)c1ncnc(Nc2ccc3nn(C)cc3c2)n1
> 4.5 | Clc1ncnc(Nc2ccc(OCc3ccccc3)cc2)n1
> 4.5 | Nc1nc2ccccc2n1-c1ncnc(Nc2cccc(CC(=O)O)c2)n1
> 4.5 | N#Cc1ccc(Nc2ncnc(-c3cccs3)n2)cc1
> 4.5 | CCOc1cccc(Nc2ncnc(Nc3ccc(OC)c(OC)c3)n2)c1
> 4.5 | NS(=O)(=O)c1ccc(Nc2ncnc(-n3c(=O)[nH]c4ccccc43)n2)cc1
> 4.5 | COc1cc(Nc2ncnc(Oc3ccc(OCc4ccccc4)cc3)n2)cc(OC)c1OC
> 4.5 | O=c1[nH]c2ccccc2n1-c1ncnc(Nc2cccc3ccccc23)n1
< 0.4 | COc1ccc(N(C)c2ncnc(Nc3ccc(OC)c(OC)c3)n2)cc1

Second part, the molecule before the results:

SMILES | IC50 [µg/mL]
COc1cc(C)c(Nc2ncnc(Nc3cc(-c4ccccc4)n[nH]3)n2)cc1OC | 0.4 to 2.4 (≈ 0.991 to 5.95 µM)
COc1cc(Nc2ncnc(-n3c(NCCc4cccnc4)nc4ccccc43)n2)cc(OC)c1OC | > 4.5
COc1cc(CNc2ncnc(N(C)c3cccc(Cl)c3)n2)cc(OC)c1OC | 2.4 to 3.5 (≈ 5.77 to 8.42 µM)
COc1cc(Nc2ncnc(-n3c(NC4c5ccccc5CC4O)nc4ccccc43)n2)cc(OC)c1OC (stereo not drawn) | > 4.5
COc1cc(Nc2ncnc(-n3c(Nc4cccc(F)c4)nc4ccccc43)n2)cc(OC)c1OC | 2.4 to 3.5 (≈ 4.92 to 7.18 µM)
CCOC(=O)Cc1ccc(Nc2ncnc(Nc3cc(OC)c(OC)c(OC)c3)n2)cc1 | < 0.4
COc1cc(Nc2ncnc(-n3c(Nc4ccc5[nH]ccc5c4)nc4ccccc43)n2)cc(OC)c1OC | 3.5 to 4.5 (≈ 6.88 to 8.85 µM)
COc1cc(Nc2ncnc(N(C)c3cccc(Cl)c3)n2)cc(OC)c1OC | < 0.4
COc1cc(Nc2ncnc(-c3ccc(N4CCNCC4)nc3)n2)cc(OC)c1OC | 3.5 to 4.5 (≈ 8.26 to 10.6 µM)
COc1cc(Nc2ncnc(-n3c(NC(C)c4ccc(F)cc4)nc4ccccc43)n2)cc(OC)c1OC (stereo not drawn) | > 4.5
Cc1ccc2c(c1)CCCN2c1ncnc(Nc2ccc3ncsc3c2)n1 | 0.4 to 2.4 (≈ 1.07 to 6.41 µM)
CN(c1cccc(Cl)c1)c1ncnc(Nc2ccc(F)c(C(F)(F)F)c2)n1 | 0.4 to 2.4 (≈ 1.01 to 6.03 µM)
CCOC(=O)C(Nc1nc2ccccc2n1-c1ncnc(Nc2cc(OC)c(OC)c(OC)c2)n1)c1ccccc1 (stereo not drawn) | > 4.5
c1coc(-c2cc(Nc3ncnc(Nc4ccc(-c5csnn5)cc4)n3)n[nH]2)c1 | 0.4 to 2.4 (≈ 0.991 to 5.95 µM)
COc1cccc(-c2ncnc(Nc3cc(OC)c(OC)c(OC)c3)n2)c1 | 2.4 to 3.5 (≈ 6.51 to 9.5 µM)
COc1cc(Nc2ncnc(N3CCOCC3)n2)cc(OC)c1OC | > 4.5
Fc1ccc(Nc2ncnc(Nc3ccc4[nH]ncc4c3)n2)cc1Cl | < 0.4
COc1cc(Nc2ncnc(-c3cccnc3NC3CCN(Cc4ccccc4)CC3)n2)cc(OC)c1OC | > 4.5
COc1cc(Nc2ncnc(-n3c(Nc4cccc5cccnc45)nc4ccccc43)n2)cc(OC)c1OC | > 4.5
Clc1cc(Cl)cc(Nc2ncnc(-n3cccc3)n2)c1 | > 4.5
COC(=O)c1ccc(-c2cc(Nc3ncnc(Nc4cc(F)cc(F)c4)n3)[nH]n2)cc1 | > 4.5
COc1cc(Nc2ncnc(-n3nc(-c4ccccc4)cc3N)n2)cc(OC)c1OC | > 4.5
Fc1ccc(CNc2ncccc2-c2ncnc(Nc3cccc(Cn4ccnn4)c3)n2)cc1 | 2.4 to 3.5 (≈ 5.29 to 7.72 µM)
CCN1CCCC1CNc1ncnc(Nc2ccc(OC)c(OC)c2)n1 (stereo not drawn) | > 4.5
COc1cc(Nc2ncnc(-n3c(NCc4cccs4)nc4ccccc43)n2)cc(OC)c1OC | 0.4 to 2.4 (≈ 0.817 to 4.9 µM)
Nc1nc2ccccc2n1-c1ncnc(Cl)n1 | > 4.5
O=C(O)CCc1cccc(Nc2ncnc(Nc3cc(-c4ccco4)[nH]n3)n2)c1 | < 0.4
COc1cc(Nc2ncnc(Nc3ccc(O)cc3C)n2)cc(OC)c1OC | 2.4 to 3.5 (≈ 6.26 to 9.13 µM)
CC(C)Nc1ncccc1-c1ncnc(Nc2ccc(N3CCOCC3)cc2)n1 | 0.4 to 2.4 (≈ 1.02 to 6.13 µM)
COc1cc(OC)cc(-c2nnc(Nc3ncnc(Nc4cc(OC)c(OC)c(OC)c4)n3)[nH]2)c1 | > 4.5
